According to a melting point compilation (Tetko et al.; mined from patent text by program, amines drawn as free bases though some values may be those of a salt):

| SMILES | melting point |
| --- | --- |
| COC(=O)[C@H](CC(C)C)NC(=O)[C@H](NC(=O)OCc1ccccc1)C(C)C | 112 to 114 °C |
| CN1CC(CCCl)Oc2cc3ccccc3cc2C1=S (configuration not stated) | 166 to 168 °C |
| CCN(CC)c1cc(-c2ccccc2)nc2nn(-c3ccccc3)cc12 | 148 to 149 °C |
| CC(C)c1ccc(C(=O)C2c3ccccc3Oc3ccccc32)c(C(C)C)c1OS(N)(=O)=O | 180 to 181 °C |
| COCc1cc(N)no1 | 49 to 52 °C |
| CSc1cccc(-c2ccccc2N)c1 | 114 to 115 °C |
| CCOC(=O)Nc1coc2cc(OCc3ccccc3)ccc12 | 140 °C |
| CCCCCCNC(=O)n1nc(Oc2c(Cl)cc(C(F)(F)F)cc2Cl)c(Cl)c1C | 86 to 88 °C |
| O=S1(=O)c2cccc3cccc(c23)N1CCCN1CCN(c2cccc(F)c2)CC1 | 103 °C |
| CN1c2ccccc2Sc2c(C=O)cccc21 | 103 °C |
| CCCOc1ccc(OCCCCC(=O)O)c(C=O)c1O | 78 to 79 °C |
| C=CCO/N=C(\C(=O)OC)c1csc(NC(c2ccccc2)(c2ccccc2)c2ccccc2)n1 | 115 to 116 °C |
| CCN(CC)C(=O)Oc1cc(-c2ccncc2)nc2ccccc12 | 76 °C |
| O=C(OCCO)c1nc(Cl)c(Cl)[nH]1 | 170 °C |
| O=c1oc2ccccc2n1CCCl | 77 to 79 °C |
| CCC[C@H]1CC[C@H](c2ccc(CCc3ccc(C#N)cc3)cc2)CC1 | 36 °C |
| CN1C(=O)c2ccccc2OC1(C)COc1ccc(CC2SC(=O)NC2=O)cc1 (configuration not stated) | 58 to 60 °C |
| CNC(=O)c1ccc(N2CCN(Cc3cc4c(c(OC)c3)OC(C)C(=O)N4)CC2)c(F)c1 (configuration not stated) | 241 to 244 °C |
| COc1cccc(-n2c(-c3sc(Nc4ccccc4)nc3-c3ccccc3)nc3ccccc3c2=O)c1 | 250 to 252 °C |
| O=C(CCCl)NC12CCCC(C1)C1CCC2C1 (configuration not stated) | 192 to 195 °C |
| COc1ccc(S(=O)(=O)C2(C(=O)NO)CCN(C(C)(C)C)CC2)cc1 | 40 °C |
| CC(Cn1cc(-c2ccccc2)c2ccccc2c1=O)NCc1ccccc1 (configuration not stated) | 118 °C |
| O=Cc1c(Cl)n(CC2CC2)c2ccccc12 | 108 to 109 °C |
| CC(C)(C)c1cc(C(=O)NCc2ccc3c(Br)c(OC(Cc4ccccc4)C(=O)O)ccc3c2)cc(C(C)(C)C)c1 (configuration not stated) | 160 to 163 °C |
| CC(Cl)(Cl)C(NC(=O)c1ccc(Cl)cc1)NC(=NC#N)Nc1cccnc1Cl (configuration not stated) | 135 to 137 °C |
| Cn1cc(O)c(=O)c2ccc(OCC(F)(F)F)cc21 | 151 °C |

| SMILES | melting point |
| --- | --- |
| CCOC(=O)c1cn(C2CC2)c2c(OC(F)F)c(F)c(F)cc2c1=O | 224 to 226 °C |
| COc1ccc(CCNCC(O)c2ccc(C)s2)cc1OC (configuration not stated) | 108 to 110 °C |
| N=C(Nc1ccc(Cl)cc1)Nc1ncccc1OCc1ccc(F)cc1F | 182 to 184 °C |
| O=C(NC(Cc1ccc(OCc2ccccc2)cc1)C(=O)O)c1cc2ccc(-c3ccc(Cl)cc3)cc2[nH]1 (configuration not stated) | 202 to 204 °C |
| CC(C)(C)NCC(O)c1ccc(OCc2ccccc2)cn1 (configuration not stated) | 69 to 73 °C |
| Cc1cc(NC(=O)c2cnccc2C(F)(F)F)on1 | 53 to 55 °C |
| Cn1cc(-c2ncc(-c3ccc4cc(OCC(=O)O)ccc4c3)o2)c2ccccc21 | 269 to 272 °C |
| O=C(O)C(=O)c1ccc(OCCCC(=O)c2ccc3ccccc3c2)cc1 | 133 to 135 °C |
| CON=Cc1ccc(-c2ccccc2NC(=O)c2c(C)nn(C)c2F)cc1 | 114 to 116 °C |
| CCc1cc2ccccn2c1C(=O)c1ccc(O)cc1 | 179 to 180 °C |
| COc1cc2cc([N+](=O)[O-])ccc2c([N+](=O)[O-])c1O | 239 to 242 °C |
| Cn1c(C(F)(F)F)cc(=O)n(-c2ccc3snc(C(C)(C)C(N)=O)c3c2)c1=O | 192 to 196 °C |
| O=C(O)COCc1cccc(-c2ccccc2OC2OC(CO)C(O)C(O)C2O)c1 (configuration not stated) | 77 to 78 °C |
| C=C(CN1C(=O)[C@H]2CCCN2C(=O)c2ccccc21)c1ccc(C(=O)Nc2ccccc2N)cc1 | 160 to 162 °C |
| CCc1nc(/C=C/c2cn(-c3ccccc3C)nc2O)cs1 | 174 to 176 °C |
| CC(C)(C)OC(=O)[C@@H]1CC[C@@H]2C=C[C@H]3CCN(C(=O)OC(C)(C)C)[C@@H]3C(=O)N21 | 147 to 149 °C |
| OCCCN1CCN2c3ccccc3Cc3ccccc3C2C1 (configuration not stated) | 127 to 128 °C |
| O=C(CCCCN1CCCCC1)NNC(=O)N1Cc2ccccc2Oc2ccc(Cl)cc21 | 126 to 128 °C |
| O=C1COCCN1c1ccc(NC[C@H](O)CCl)cc1 | 138 to 139 °C |
| O=C(NCC12CC3CC(CC(C3)C1)C2)c1cc(-c2c(F)cccc2C(=O)O)ccc1Cl | 108 to 113 °C |
| O=[N+]([O-])c1cc(Br)nc(Br)c1 | 122 to 123 °C |
| Nc1ccccc1S(=O)(=O)c1cc(C(=O)O)ccc1Cl | 235 to 238 °C |
| COC(=O)CC(c1ccc(OC)c(OC)c1)N1C(=O)c2ccccc2C1=O (configuration not stated) | 114 to 116 °C |
| COc1cc(OC)c2c(=O)[nH]c(-c3ccc(OC4CCN(C(=O)N(C)C)CC4)cc3)nc2c1 | 248 to 249 °C |
| CC(=O)C(C)N(C(=O)CCl)c1c(C)cccc1C (configuration not stated) | 78 to 82 °C |
| COc1ccccc1C(c1ccccc1)c1cccc(-c2ccccc2)c1O (configuration not stated) | 120 °C |

| SMILES | melting point |
| --- | --- |
| Nc1nc2ccccc2c2c1nc(CCCOc1ccccc1)n2CCCNC(=O)c1ccc(Br)cc1 | 186 to 187 °C |
| O=C(OCc1ccccc1)c1ccc(O)c(O)c1 | 147 to 149 °C |
| CC(C)(C)CN1C(=O)N(CC(=O)O)CC(c2ccccc2Cl)c2cc(Cl)ccc21 (configuration not stated) | 228 to 231 °C |
| CS(=O)(=O)c1ccc(C(CC2CCCC2)C(=O)Nc2ccccn2)cc1C#N (configuration not stated) | 87 to 90 °C |
| CN(Cc1ccccc1)C1c2ccccc2CC1O (configuration not stated) | 64 °C |
| COc1ccc([N+](=O)[O-])c(Nc2ccc3[nH]ncc3c2)n1 | 206 to 208 °C |
| O=C(NC(=O)c1ccc2ncccc2c1)NC1CCN(Cc2ccc3ncccc3c2)CC1 | 202 to 204 °C |
| O=C(c1ccc(Cl)cc1)c1ccc(N2N=CCNC2=O)cc1Cl | 158 to 159 °C |
| Cn1cc(-c2ccccc2)c(=O)c(-c2ccc(Cl)c(C(F)(F)F)c2)c1 | 154 to 155 °C |
| O=c1nc(-c2ccccn2)sc2ccc(Cl)cc12 | 269 to 270 °C |
| CCOC(=O)NN(C)c1ccc(-c2ccc(F)cc2)nn1 | 160 to 161 °C |
| Cc1cccc2c1nc(COc1ccc(Cl)cc1)n2CCC(Cc1ccccc1)C(=O)NCCCN1CCCCC1 (configuration not stated) | 91 to 93 °C |
| O=C(c1cccc(CBr)c1)c1cccc(CBr)c1 | 147 to 148 °C |
| COc1ccnc2c1C(=O)c1c(-c3ccccc3NC(=O)C(F)(F)F)ccnc1C2=O | 158 °C |
| Clc1ncccc1-c1ccccn1 | 50 °C |
| O=Cc1ccc(CCCCCCCC(=O)O)o1 | 70 to 72 °C |
| CS(=O)(=O)c1ccc(-c2cc(C(=O)O)sc2-c2ccc(F)cc2)cc1 | 264 °C |
| COc1cc2nc3n(c(=O)c2cc1OC)CS(=O)(=O)N3 | > 300 °C |
| O=c1ccc2cccc(-c3cccc4ccccc34)c2[nH]1 | 198 to 199 °C |
| CC(C)(C)N1C(=O)c2cnc(-c3ccccc3)nc2N(C(=O)CCl)c2ccccc21 | 176 to 177 °C |
| CC(=O)Nc1ccc2c(c1)C(CN1CCC(c3ccc(F)cc3)CC1)CC2 (configuration not stated) | 145 to 146 °C |
| Cc1ccc(C(=O)Nc2c(NC(=O)CN3CCN(c4ccccc4C#N)CC3)ccc3c2C(=O)c2ccccc2C3=O)cc1 | 238 to 239 °C |
| CCC(C(N)=O)c1c(C(O)(C(F)(F)F)C(F)(F)F)ccc2ccccc12 (configuration not stated) | 189 to 190 °C |
| CC(=O)N1CCC(=O)C(C(c2ccc(C)cc2)c2ccc(C)cc2)C1 (configuration not stated) | 142 to 144 °C |
| CC(C)(C)c1cc(N)n(-c2cccc(Oc3ccccc3)c2)n1 | 108 to 110 °C |
| C=C(C)CONC(=O)c1nc(-c2ccc(Cl)c(OC)c2F)cc(N)c1Cl | 147 to 149 °C |

| SMILES | melting point |
| --- | --- |
| CCOC(=O)[C@@H]1C[C@H]1Sc1nc2ccccc2cc1-c1ccccc1 (relative stereo) | 94 to 94.5 °C |
| Cc1nc(N2CCN(CCCC(F)(F)F)C2=O)sc1-c1cc[nH]n1 | 185 to 186 °C |
| COc1ccc(CNC(=O)c2ccc3ccccc3c2Br)cc1 | 155 °C |
| N#Cc1cc(N)ccc1N1CCN(C2CCSCC2)CC1 | 109 °C |
| Nc1nc2ccc(Cc3ccccc3)cc2s1 | 173 to 175 °C |
| CCCCN(CCCC)CCCOc1ccc(S(=O)(=O)c2ccccc2C(C)C)cc1 | 88 °C |
| CSc1nc(Cl)c(Cc2ccccc2)c(N2CCCC2)n1 | 97 to 99 °C |
| CC(C)C(=O)Oc1ccc(C(=O)c2ccccc2)cc1 | 69 to 69.5 °C |
| O=C(O)CCc1cnoc1-c1ccc(F)cc1F | 125 to 126 °C |
| NC(CC(=O)O)c1ccc2c(c1)OCCO2 (configuration not stated) | 222 to 223 °C |
| OCCCc1ccncc1O | 123 to 126 °C |
| BrCc1cccc(OCc2ccccc2)c1 | 38 to 40 °C |
| CCCCNc1nc2c(C(=O)OCC)cnn2c2c1cnc1c2cnn1CC | 275 to 277 °C |
| CC1(C)COC(=O)N1c1nc(-c2csc(C#N)c2)cs1 | 249 to 252 °C |
| COCN(C(=O)CCl)c1c(OC)cccc1OC | 104 to 106 °C |
| CCC(Oc1cccc(C)c1)C(=O)OC1CC(O)C=C2C=CC(C)C(CCC3CC(O)CC(=O)O3)C21 (mixture of isomers) | 147 to 149 °C |
| CC1CC(C)(C)C(CNc2ccnc3cc(Cl)ccc23)C1N (configuration not stated) | > 250 °C |
| CC(C)=NNc1ccc(OCC(C)NCC(O)COc2ccccc2C#N)nn1 (configuration not stated) | 121 to 123 °C |
| O[C@H]1CC[C@H](n2cnc(-c3ccc(F)cc3)c2-c2ccnc(Nc3ccccc3)n2)CC1 | 204 to 206 °C |
| O=C(NC(=O)c1ccc(F)cc1Cl)Nc1ccc(OC(F)(F)C(F)Cl)c(Cl)c1 (configuration not stated) | 186 °C |
| CC(C)c1cccc(C(C)C)c1NC(=O)CC(=O)N(Cc1ccccc1)C(C)C | 102 °C |
| CSC1=NC(C)(C)CCC(C)(C)N1 | 200 to 205 °C |
| Cc1cccc(C(=O)c2[nH]c3ccc(Cl)cc3c2CC(=O)O)c1 | 173 to 174 °C |
| O=C(O)c1cnccc1CCCOc1cccnc1Oc1cccc(Cl)c1 | 142 to 144 °C |
